The subject of the first test is Spodoptera exigua (beet armyworm). Description: Insecticidal activity on beet armyworm, treated lepidopteran diet. It counts as in vivo. The following applies: 120 h, Rate 400 PPM, 250 μL test solution on diet surface, second-instar larvae, 5 days at 25° C., five insects per treatment. As to the method:
(§1) Different 2,4-(substituted aromatic)-1,3-oxazoline compounds were tested for insecticidal activity on Spodoptera exigua (beet armyworm) and Myzus persicae (green peach aphid).
The different 2,4-(substituted aromatic)-1,3-oxazoline compounds used on Spodoptera exigua were formulated as test solutions. To prepare the test solutions, the different 2,4-(substituted aromatic)-1,3-oxazoline compounds were formulated at 400 PPM in 7.5 mL of 2:1 acetone:tap water solvent. 250 μL of each test solution was pipetted upon the surface of 8 mL of lepidopteran diet (modified Shorey) contained in each of five one-ounce plastic cups (one cup=1 replication). A second-instar beet armyworm was placed upon the treated diet in each cup once the solvent had air-dried. The cups containing the treated lepidopteran diet and the beet armyworms were capped and then held in a growth chamber at 25° C., 50-55% RH, and 14 hours light:10 hours dark for 5 days. The average % mortality was determined from the number of dead insects of five per treatments.
In general, mortality refers to the share of the test organisms that died. In turn, `C[C@@H]1OC(c2c(F)cccc2F)=N[C@@H]1c1ccc(-c2ccc(C(F)(F)F)cc2)cc1` (stereo in doubt) [(III)] yielded a mortality at 400 ppm of 100%. The same measure, in the same setting: the same measure for `Cc1ccc(-c2ccc([C@@H]3N=C(c4c(F)cccc4F)O[C@H]3C)cc2)cc1C` (stereo in doubt) [(IX)]: 60%. On the same count and under the same terms, with `Cc1ccccc1C1=N[C@@H](c2ccc(-c3ccc(C(F)(F)F)cc3)cc2)[C@@H](C)O1` (stereo in doubt) [(X)] the figure was 100%.

`Cc1ccccc1C1=N[C@@H](c2ccc(-c3ccc(OC(F)(F)F)cc3)cc2)[C@@H](C)O1` (stereo in doubt) [(XI)] displayed a mortality at 400 ppm of 100%. Consider `C[C@@H]1OC(c2c(F)cccc2Cl)=N[C@@H]1c1ccc(-c2ccc(OC(F)(F)F)cc2)cc1` (stereo in doubt) [(XII)], for which the mortality at 400 ppm was found to be 100%. In turn, `CCOc1ccc(-c2ccc([C@H]3N=C(c4c(F)cccc4Cl)O[C@H]3C)cc2)cc1` (stereo in doubt) [(XIII)] registered a mortality at 400 ppm of 100%. Regarding `C[C@H]1OC(c2c(F)cccc2F)=N[C@H]1c1ccc(-c2ccc(OC(F)(F)F)cc2)cc1` (stereo in doubt) [(XVI)], the mortality at 400 ppm was 100%.

The compound `FC(F)(F)c1ccc(-c2ccc(C3COC(c4c(Cl)cncc4Cl)=N3)cc2)c(Cl)c1` (centres unmarked) [(I)] registered a mortality at 400 ppm of 100%.

Regarding `Fc1cncc(F)c1C1=NC(c2ccc(-c3ccc(C(F)(F)F)cc3)cc2)CO1` (centres unmarked) [(II)], the mortality at 400 ppm was 80%. Same read-out and setting: the same measure for `Clc1cncc(Cl)c1C1=NC(c2ccc(-c3ccccc3)cc2)CO1` (centres unmarked) [(IV)]: 80%.

Regarding `Fc1ccc(C(F)(F)F)cc1-c1ccc(C2COC(c3c(Cl)cncc3Cl)=N2)cc1` (centres unmarked) [(V)], the mortality at 400 ppm is 60%. Same read-out and setting: the same measure for `Cc1cc(-c2ccc(C(F)(F)F)cc2)ccc1C1COC(c2c(Cl)cncc2Cl)=N1` (centres unmarked) [(VI)]: 100%. Same read-out and setting: with `CCOc1ccc(-c2ccc(C3COC(c4c(Cl)cncc4Cl)=N3)c(C)c2)cc1` (centres unmarked) [(VII)] the figure was 100%; with `Cc1cc(-c2ccc(OC(F)(F)F)cc2)ccc1C1COC(c2c(F)cccc2Cl)=N1` (centres unmarked) [(VIII)], 100%; with `CCOc1ccc(-c2ccc(C3N=C(c4c(F)cccc4F)OC3(C)C)cc2)cc1` (centres unmarked) [(XIV)], 60%. On the same count and under the same terms, the same measure for `FC(F)(F)c1ccc(-c2ccc(C3COC(c4c(Cl)cncc4Cl)=N3)cc2)cc1` (centres unmarked) [(XV)]: 100%.

The test system of another test is Myzus persicae (green peach aphid). Description: Insecticidal activity on green peach aphid, spray on infested cabbage leaves. It counts as in vivo. The following applies: 72 h, Rate 50 PPM spray on infested cabbage leaves until runoff, graded after 3 days at 26° C., count compared with untreated check. The method, then:
as §1
The different 2,4-(substituted aromatic)-1,3-oxazoline compounds used on Myzus persicae were formulated as test spray solutions. To prepare the test spray solutions, 1 mg of each of the different 2,4-(substituted aromatic)-1,3-oxazoline compounds was dissolved into 1 mL of a 90:10 acetone:ethanol solvent. The resulting solution was added to 19 mL of water containing 0.05% Tween surfactant to produce different 50 PPM spray solutions. Cabbage leaves were […] with green peach aphid (all life stages) 16-20 hours prior to application of the different spray solutions. The different spray solutions were sprayed on both sides of each infested cabbage leaf with a sweeping action until runoff. The cabbage leaves were allowed to dry and were held for 3 days in a controlled room at 26° C. and 40% RH, after which time the test was graded. Grading was by actual count using a dissecting microscope and comparison of test counts to an untreated check. The average % mortality was then determined. In Table 1, “NT” means insecticidal activity was not tested for the 2,4-(substituted aromatic)-1,3-oxazoline compound at this rate.
With `C[C@@H]1OC(c2c(F)cccc2F)=N[C@@H]1c1ccc(-c2ccc(C(F)(F)F)cc2)cc1` (stereo in doubt) [(III)], the mortality at 50 ppm was 32%. Still for that read-out and setting: the same measure for `Cc1ccc(-c2ccc([C@@H]3N=C(c4c(F)cccc4F)O[C@H]3C)cc2)cc1C` (stereo in doubt) [(IX)]: 0%; for `Cc1ccccc1C1=N[C@@H](c2ccc(-c3ccc(C(F)(F)F)cc3)cc2)[C@@H](C)O1` (stereo in doubt) [(X)]: 88%; for `Cc1ccccc1C1=N[C@@H](c2ccc(-c3ccc(OC(F)(F)F)cc3)cc2)[C@@H](C)O1` (stereo in doubt) [(XI)]: 71%. Same read-out and setting: with `C[C@@H]1OC(c2c(F)cccc2Cl)=N[C@@H]1c1ccc(-c2ccc(OC(F)(F)F)cc2)cc1` (stereo in doubt) [(XII)] the figure was 86%; with `CCOc1ccc(-c2ccc([C@H]3N=C(c4c(F)cccc4Cl)O[C@H]3C)cc2)cc1` (stereo in doubt) [(XIII)], 82%.

As for `C[C@H]1OC(c2c(F)cccc2F)=N[C@H]1c1ccc(-c2ccc(OC(F)(F)F)cc2)cc1` (stereo in doubt) [(XVI)], the mortality at 50 ppm was 95%. The same measure, in the same setting: with `FC(F)(F)c1ccc(-c2ccc(C3COC(c4c(Cl)cncc4Cl)=N3)cc2)c(Cl)c1` (centres unmarked) [(I)] the figure was 18%; with `Cc1cc(-c2ccc(C(F)(F)F)cc2)ccc1C1COC(c2c(Cl)cncc2Cl)=N1` (centres unmarked) [(VI)], 20%; with `CCOc1ccc(-c2ccc(C3COC(c4c(Cl)cncc4Cl)=N3)c(C)c2)cc1` (centres unmarked) [(VII)], 82%. Still for that read-out and setting: with `Cc1cc(-c2ccc(OC(F)(F)F)cc2)ccc1C1COC(c2c(F)cccc2Cl)=N1` (centres unmarked) [(VIII)] the figure was 66%; with `CCOc1ccc(-c2ccc(C3N=C(c4c(F)cccc4F)OC3(C)C)cc2)cc1` (centres unmarked) [(XIV)], 40%; with `FC(F)(F)c1ccc(-c2ccc(C3COC(c4c(Cl)cncc4Cl)=N3)cc2)cc1` (centres unmarked) [(XV)], 75%.

Values taken from patent publication US20130317069A1, “2,4-(SUBSTITUTED AROMATIC)-1,3-OXAZOLINE COMPOUNDS AS A SEED TREATMENT TO CONTROL PESTS” (Dow Agrosciences LLC, priority 2012, published 2013).
